Reference: patent US20050169883A1, “Preblocking with non-ha gags increases effectiveness of ha conjugated anticancer agents” (priority 2002, published 2005)

Tests used:
[1] = system: HBL-100 human breast cancer cells; assay: In vitro cytotoxicity, MTT dye uptake; assay type: cell-based; conditions: 72 h, HBL-100 cells, 3 days incubation, DOX equivalent
Description: (§1) HBL-100, a human breast cancer cell-line, was maintained in culture in high glucose D-MEM (Dulbecco's Modified Eagle Medium), which was supplemented with 10% γ-irradiated fetal bovine serum (FBS) and 1% sodium pyruvate; SK-OV-3, a human ovarian cancer cell-line was cultured in D-MEM/F12+10% FBS; HCT-116, a colon tumor cell-line, was maintained in culture in α-MEM (Minimal Essential Medium, Eagle)+10% FBS. 4T1 mouse breast cancer cells and TSU human bladder cancer cells were cultured with 10% calf serum-90% Dulbecco's modified Eagle's medium (DMEM) at 37° C. in 5% CO2 incubator.
(§2) All ^1H NMR spectral data were obtained using an NR-200 FT-NMR spectrometer at 200 MHz (IBM Instruments Inc.). UV-Vis spectra were recorded on a Hewlett Packard 8453 UV-Vis diode array spectrophotometer (Palo Alto, Calif.). HA was characterized by gel permeation chromatography (GPC) was on the following system: Waters 515 HPLC pump, Waters 410 differential refractometer, and Waters™ 486 tunable absorbance detector, Waters Ultrahydrogel 250 and 2000 columns (7.8 mm ID×30 cm) (Milford, Mass.) were used for GPC analysis, the eluent was 150 mM pH 6.5 phosphate buffer/MeOH=80:20 (v/v), and the flow rate was 0.5 in L/min. The system was calibrated with HA standards supplied by Dr. O. Wik (Pharmacia). […] Cell viability in cell culture was determined by thiazoyl blue (MTT) dye uptake protocols measured at 540 nm, which was recorded on a BIO-RAD M-450 microplate reader (Hercules, Calif.). […] Fluorescence images were taken using FITC settings with the 488 nm excitation line and a 522 nm 32 bandpass filter was used to collect the images.
(§3) The cytotoxicity of HA-DOX and HPMA-HA-DOX conjugates against HBL-100, SKOV-3 and HCT-116 cells was determined using a 96-well plate format in quadruplicate with increasing doses range from 0.001-10 mg/mL of DOX equivalent. […] Thus, a 2-μL aliquot of the stock solution was added to each well, and cells were continuously incubated at 37° C., 5% CO2 for 3 days with the test substance, and cell viability was determined using MTT dye uptake at 540 nm. […]

[2] = system: HCT-116 human colon cancer cells; assay: In vitro cytotoxicity, MTT dye uptake; assay type: cell-based; conditions: 72 h, HCT-116 cells, 3 days incubation, DOX equivalent
Description: as §1, §2, §3

[3] = system: SK-OV-3 human ovarian cancer cells; assay: In vitro cytotoxicity, MTT dye uptake; assay type: cell-based; conditions: 72 h, SK-OV-3 cells, 3 days incubation, DOX equivalent
Description: as §1, §2, §3

[4] = system: human prostate cancer cell-line DU-145; assay: In vitro cytotoxicity against prostate cancer cell line; assay type: cell-based; conditions: DU-145 cells, DOX equivalent
Excerpt: The in vitro cytotoxicity of HPMA-HA-DOX with 17% and 36% HA loading against cultured prostate cancer cell line DU-145 was examined. FIG. 8 depicts the in vitro cytotoxicity results of the HPMA-HA-DOX bioconjugates. The cytotoxicity of targeted HPMA-HA-DOX bioconjugates were dramatically higher than non-targeted HPMA-DOX conjugate (Table 2), and 8- to 12-fold higher than the free DOX drug against this prostate cancer cell-line.

[5] = system: 4T1 cells; assay: HA degradation assay; assay type: cell-based, mouse
Description: (§4) The assay was carried out as described (CBU) with some modification. […] In some wells, the media contained 200 μg/ml of KM201 (a neutralization antibody against CD44) or 0.1 mM of chloroquine (an inhibitor of lysosomal enzymes). The media were collected, which contained some of the released and degraded ^3H-HA. […] The media and the supernatant from cells were centrifuged with Centricon 30 (Amicon, Danvers, Mass.). The un-degraded high MW ^3H-HA was retained in the upper chamber.
(§5) This mixture was then separated by filter membrane with MW cut of 30,000 Dalton.
CD44 was examined to determine if it was expressed by 4T1 cells and if it could interact with HA. First, CD44 was detected by Western blotting. […] The binding was specific as it could be inhibited by excess of cold HA (FIG. 14B).

[6] = system: TSU cells; assay: HA degradation assay; assay type: cell-based, human; conditions: 48 hours, KM201 200 μg/ml or chloroquine 0.1 mM
Description: as §4, §5

[7] = system: HA binding sites in the major organs; assay: Chondroitin sulfate pretreatment, organ and tumor up-take of 3H-HA; assay type: in vivo, mouse
Description: The tumors and organs were collected, weighted, and homogenized with ultrasound to make tissue homogenates. The protein concentration was normalized to 0.1 mg/ml. Then, 300 μl of tissue homogenates were mixed with 2.5 ml of scintillation solution and counted for the radioactivity. […] Twenty-four hours later, the mice were sacrificed and the homogenates of tumors and organs were counted for the radioactivity.
This approach did reduce the HA taken up by liver and increased the amount of HA accumulated in tumors.
One day later, the tumors and organs were collected, weighed, homogenized with ultrasound to make tissue lysate at a protein concentration of 0.1 mg/ml. Then, 300 μl of tissue lysate were mixed with 2.5 ml of scintillation solution and counted for the radioactivity.

[8] = system: 4T1 mouse breast cancer cells; assay: In vivo anti-tumor effect, 4T1 tumor model in BABL/c mice; conditions: 4 mg/kg Taxol or equivalent, i.p. every other day; versus vehicle and Taxol alone
Description: The 4T1 mouse breast cancer cells (10^6/site) were subcutaneously injected into either BABL/c mice and allowed to grow for 2 days for the tumor to be established. […] The injection was carried out every other day for two to four weeks. The tumor sizes were measured twice a week. At the end of experiment, the mice were sacrificed and the tumor were harvested, photographed and weighted.

[9] = system: 4T1 tumors; assay: Chondroitin sulfate blocking study, survival of mice bearing 4T1 tumors; assay type: in vivo, mouse; conditions: experiment period of 33 days; ten i.p. injections every other day
Description: This procedure was carried out every other day for 20 days, and mice received a total of ten injections. The mice were recorded for their survival days and the survival rate was calculated.
This procedure was carried out every other day for 20 days, and mice received a total of ten injections. The mice were recorded for their survival during a 33 day experimental period s and the survival rate was calculated.

[10] = system: 4T1 breast cancer cells; assay: Spontaneous lymph node metastasis of 4T1 cells injected into foot pad; assay type: in vivo, mouse; conditions: for Weight of lymph node: s.c. three times a week for three weeks, 4 mg/kg Taxol equivalent
Description: The 4T1 breast cancer cells were injected into foot pat of syngenic BABL/c mice. […] About 0.2 ml of above agents were administrated by subcutaneous (s.c.) injection at the middle of leg three times a week, from where HA-drug could be drained/absorbed into popliteal and inguinal lymph path, in which the spontaneous metastases were expected to take place.
The lymph nodes were carefully dissected out from surrounding fat, measured for the weights and processed for pathology.

## COc1cccc2c1C(=O)c1c(O)c3c(c(O)c1C2=O)C[C@@](O)(C(=O)CO)C[C@@H]3O[C@H]1C[C@H](N)[C@H](O)[C@H](C)O1 [DOX, Doxorubicin]
[1]
  IC50: 0.15 µM
[2]
  IC50: 0.35 µM
[3]
  IC50: 0.92 µM
[4]
  IC50: 31.5 µM

## CCN(CC)CCCC(C)Nc1ccnc2cc(Cl)ccc12 (stereo not shown) [chloroquine]
[5]; 48 hours, KM201 200 μg/ml or chloroquine 0.1 mM
  degradation of high MW 3H-HA by cells: reduce the degraded ^3H-HA
[5]; 72 hours
  CD44 mediated degradation of 3H-HA: inhibited
[6]
  degradation of high MW 3H-HA by cells: reduce the degraded ^3H-HA

## chondroitin sulfate
[7]; chondroitin sulfate i.v. two hours before 3H-HA, 24 hours
  up-take of HA in the major organs: reduced their up-take of HA
[7]; chondroitin sulfate pretreatment
  3H-HA in tumors versus untreated mice: higher
[7]; liver monitored for two days
  amount of 3H-HA in the liver versus vehicle alone: much lower

## CC(=O)O[C@H]1C(=O)[C@@]2(C)[C@H]([C@H](OC(=O)c3ccccc3)[C@]3(O)C[C@H](OC(=O)[C@H](O)[C@@H](NC(=O)c4ccccc4)c4ccccc4)C(C)=C1C3(C)C)[C@]1(OC(C)=O)CO[C@@H]1C[C@@H]2O [Taxol]
[8]
  size of 4T1 tumors: did not reduce the size
[9]
  survival rate: 60%
[10]; inguinal lymph node metastasis
  Inhibition ratio (%): 31.8%
[10]; inguinal lymph node
  Weight of lymph node: 9.00 ± 0.79
[10]; popliteal lymph node metastasis
  Inhibition ratio (%): −1.7%
[10]; popliteal lymph node
  Weight of lymph node: 46.70 ± 5.05
